Holding throughout (format): functional
In experiment [1] the test system is Candida albicans. The experiment is described as follows: Antifungal activity against fluconazole-resistant Candida albicans clinical isolate 103 assessed as fractional inhibitory concentration index by microbroth dilution method in presence of 8 ug/ml fluconazole.
For experiment [2], the system named is Candida albicans. The experiment is described as follows: Antifungal activity against fluconazole-resistant Candida albicans clinical isolate 103 by microbroth dilution method.
The subject of experiment [3] is Candida albicans. The experiment is described as follows: Antifungal activity against fluconazole-resistant Candida albicans clinical isolate 103 by microbroth dilution method in presence of 8 ug/ml fluconazole.

Converted amounts (≈) assume the structure as drawn.

Broadly, the MIC80 is the lowest concentration that inhibits either 80% of growth or 80% of the strains tested, depending on the study. For `O=C(/C=C/c1ccco1)c1ccccc1O`, the “fractional inhibitory concentration index (FICI)” value in experiment [1] is reported as 0.506. For the same compound, the MIC80 in experiment [2] is greater than 64 µg/mL; in experiment [3] it was 64 µg/mL.
Turning to `COc1cccc(O)c1C(=O)/C=C/c1ccccc1`, the “fractional inhibitory concentration index (FICI)” value in experiment [1] worked out at 0.188. The values for the MIC80 in experiment [2] and in experiment [3] were greater than 64 µg/mL and 16 µg/mL, respectively.
As to `COc1cccc(O)c1C(=O)/C=C/c1cccs1`, in experiment [1], the “fractional inhibitory concentration index (FICI)” value was 0.094. Further, the results for the MIC80 in experiment [2] and in experiment [3] were greater than 64 µg/mL and 4 µg/mL, respectively.
Take `O=C(/C=C/c1cccs1)c1ccccc1O`: in experiment [1], the “fractional inhibitory concentration index (FICI)” value is greater than 1.06. Moreover, the MIC80 in experiment [2] and in experiment [3] was greater than 64 µg/mL throughout.
For the compound `COc1ccc(/C=C/C(=O)c2ccccc2F)cc1`, the “fractional inhibitory concentration index (FICI)” value in experiment [1] is 0.506. Also, the MIC80 in experiment [2] is greater than 64 µg/mL; in experiment [3], 64 µg/mL.
`COc1cc(/C=C/C(=O)c2ccccc2O)ccc1O`: the “fractional inhibitory concentration index (FICI)” value in experiment [1] is greater than 1.06. Besides, the MIC80 in experiment [2] and in experiment [3] was greater than 64 µg/mL each time.
Turning to `O=C(/C=C/c1ccc2c(c1)OCO2)c1ccccc1Cl`, the “fractional inhibitory concentration index (FICI)” value in experiment [1] amounted to 0.315. Besides, the MIC80 was greater than 64 µg/mL in experiment [2] and 32 µg/mL in experiment [3].
With `O=C(/C=C/c1ccc(Br)cc1)c1c(O)cccc1O`, the “fractional inhibitory concentration index (FICI)” value in experiment [1] worked out at 0.188. Besides, the figures for the MIC80 in experiment [2] and in experiment [3] were greater than 64 µg/mL and 16 µg/mL, respectively.
In the case of `COc1ccc(/C=C/C(=O)c2ccccc2Cl)cc1OC`, the “fractional inhibitory concentration index (FICI)” value in experiment [1] is greater than 1.06. In addition, the MIC80 in experiment [2] and in experiment [3] was greater than 64 µg/mL each time.
For the compound `COc1ccc(C(=O)/C=C/c2ccccc2)c(O)c1`, the MIC80 in experiment [2] was greater than 64 µg/mL; in experiment [3], 1 µg/mL.
Turning to `COc1ccc(/C=C/C(=O)c2ccccc2N)cc1OC`, the “fractional inhibitory concentration index (FICI)” value in experiment [1] came out at 0.315. For the same compound, the MIC80 in experiment [2] is greater than 64 µg/mL; in experiment [3], 32 µg/mL.
Consider `O=C(/C=C/c1ccc2c(c1)OCO2)c1ccccc1O`, for which the “fractional inhibitory concentration index (FICI)” value in experiment [1] was found to be 0.315. For the same compound, the MIC80 in experiment [2] was greater than 64 µg/mL; in experiment [3], 32 µg/mL.
As for `COc1ccc(/C=C/C(=O)c2ccc(O)cc2)cc1OC`, in experiment [1], the “fractional inhibitory concentration index (FICI)” value was greater than 1.06. Besides, the MIC80 in experiment [2] and in experiment [3] was greater than 64 µg/mL in each case.
On to `Nc1ccccc1C(=O)/C=C/c1ccco1`, for which, in experiment [1], the “fractional inhibitory concentration index (FICI)” value was greater than 1.06. For the same compound, the MIC80 in experiment [2] and in experiment [3] was greater than 64 µg/mL in each case.
Turning to `O=C(/C=C/c1ccc(C(F)(F)F)cc1)c1ccccc1O`, the “fractional inhibitory concentration index (FICI)” value in experiment [1] came to 0.506. The MIC80 was greater than 64 µg/mL in experiment [2] and 64 µg/mL in experiment [3].
The corresponding values for `O=c1cc(-c2ccccc2)oc2cc(O)c(O)c(O)c12` [BAICALEIN] are 0.188, 32 µg/mL (≈ 118 µM) and 4 µg/mL.
The corresponding values for `COc1cccc(O)c1C(=O)/C=C/c1ccc2c(c1)OCO2` are 0.094, greater than 64 µg/mL and 4 µg/mL.
Turning to `O=C(/C=C/c1ccccc1)c1cc(Br)c(O)c(Br)c1O`, in experiment [1], the “fractional inhibitory concentration index (FICI)” value was 0.125. Also, the MIC80 in experiment [2] worked out at 64 µg/mL (≈ 161 µM); in experiment [3], 4 µg/mL.
As to `O=C(/C=C/c1ccccc1)c1ccc(O)cc1` [4'-HYDROXYCHALCONE], the “fractional inhibitory concentration index (FICI)” value in experiment [1] was greater than 1.06. Besides, the MIC80 in experiment [2] and in experiment [3] was greater than 64 µg/mL throughout.
As to `O=C(/C=C/c1ccc(CO)o1)c1ccccc1O`, the “fractional inhibitory concentration index (FICI)” value in experiment [1] was determined as 0.125. Besides, the MIC80 is greater than 64 µg/mL in experiment [2] and 8 µg/mL in experiment [3].
The corresponding values for `COc1cccc(O)c1C(=O)/C=C/c1cccnc1` are 0.125, greater than 64 µg/mL and 8 µg/mL.
In the case of `O=C(/C=C/c1ccc(F)cc1)c1ccccc1O`, in experiment [1], the “fractional inhibitory concentration index (FICI)” value is 0.315. Moreover, the MIC80 is greater than 64 µg/mL in experiment [2] and 32 µg/mL in experiment [3].
For the compound `CN(C)c1ccc(/C=C/C(=O)c2ccccc2F)cc1`, the “fractional inhibitory concentration index (FICI)” value in experiment [1] came to 0.125. In addition, the MIC80 was greater than 64 µg/mL in experiment [2] and 8 µg/mL in experiment [3].
The corresponding values for `COc1cccc(O)c1C(=O)/C=C/c1ccco1` are 0.094, greater than 64 µg/mL and 4 µg/mL.
For the compound `COc1cccc(O)c1C(=O)/C=C/c1ccc(CO)o1`, the “fractional inhibitory concentration index (FICI)” value in experiment [1] is listed as 0.125. Further, the results for the MIC80 in experiment [2] and in experiment [3] were greater than 64 µg/mL and 8 µg/mL, respectively.

Values taken from ChEMBL document CHEMBL3808297, “The synthesis and synergistic antifungal effects of chalcones against drug resistant Candida albicans” (2016).
